Laboratory results reported in paper PMC6588349 (eLife, 2019).
“Also recorded” adds a separate entry of the source. Like-named read-outs stand apart in the source and are kept apart here.

Experiments:
[1] = biological target: T1, SNAP-mGluR2 (full-length) (Rattus norvegicus, UniProt P31421); experiment: Inter-LBD FRET assay with full-length SNAP-mGluR2; assay type: cell-based; settings: saturating concentrations; for direct effect on inter-LBD FRET (no orthosteric agonist for modulators): drug applied alone; for effect on inter-LBD FRET response to DCG-IV: agonist DCG-IV
T1 construct: HEK 293T cells expressing full-length mGluR2; expressed in transfected cells; host or cells: HEK 293T
From the text: We next sought to further probe the variation in PAM-induced inter-TMD FRET changes. […] We used an inter-LBD FRET assay to assess the relative strength of allosteric modulation by different mGluR2 PAMs. Agonists induce a decrease in FRET between fluorophore-conjugated N-terminal SNAP- and CLIP-tags (Figure 4E). […] We tested this effect for all PAMs by applying a saturating concentration of DCG-IV followed by co-application of a saturating concentration of each PAM, which produced further FRET decreases (Figure 4F,G).
(§1) Fluorophores were diluted in EX solution, which was also used to wash coverslips following labeling and prior to mounting on the microscope. After labeling, cells were mounted on an inverted microscope (Olympus IX73) and imaged with a 60x objective. […] Clusters of cells were analyzed together using ImageJ and FRET was calculated as FRET=(IAcceptor)/(IDonor +IAcceptor) where I is fluorescence intensity. No corrections were made for bleed-through between channels or the contribution of donor-donor or acceptor-acceptor dimers as analysis was limited to relative FRET changes between drug treatments rather than absolute FRET values. […] FRET changes calculated for dose–response curves were normalized to the response to saturating […] applied within the same recording and dose–response curves were obtained from multiple cell clusters and averaged from at least three separate experiments. Dose–response curves were fit using Prism (Graphpad). All drugs were purchased from Tocris, prepared in EX solution, and delivered with a gravity-driven perfusion system. For kinetics measurements a pressurized perfusion system (Automate Scientific) was used to produce a flow rate of 0.5 mL/s. Kinetic analysis was performed in Microsoft Excel. The time between 10% and 90% FRET increase or decrease was determined manually. For photo-bleaching/donor-recovery experiments, images were taken in donor and acceptor channels at baseline and again followed by a 1 min exposure to 640 nm laser illumination at maximum intensity. All experiments were performed at room temperature. All data were produced from at least two separate transfections for each condition.

[2] = biological target: T2, SNAP-mGluR2-TMD (Rattus norvegicus, UniProt P31421); experiment: Single-molecule pulldown (SiMPull) photobleaching step counting, SNAP-mGluR2-TMD; settings: 10 µM LY48, 1 µM BINA, 10 µM Ro 64, 1 µM MNI 137
T2 construct: mGluR2-TMD (rat) starts at Q558; expressed in transfected cells; host or cells: HEK 293T
From the text: Photobleaching step analysis of individual complexes allows for precise determination of receptor stoichiometry and, unlike FRET or BRET-based methods, this assay is not sensitive to conformation or relative fluorophore orientation. […] However, this work relied on GFP-tagged receptors which leads to a lysate that contains both surface-targeted and intracellular receptors, potentially including immature or partially degraded protein that can confound analysis.
To restrict our analysis to surface-targeted receptors, we expressed N-terminally SNAP-tagged receptor variants and labeled them with membrane-impermeable fluorophores.
To test this, we incubated SNAP-mGluR2-TMD expressing cells and lysates with PAMs or NAMs during the SiMPull experiment.
Briefly, to prevent non-specific sticking of proteins, flow chambers were prepared with mPEG-passivated glass slides and coverslips doped with ~1% biotinylated mPEG, as previously described. Prior to each experiment, chambers were incubated with 0.2 mg/mL NeutrAvidin (ThermoFisher) for 2 min followed by 10 nM of a biotinylated anti-HA antibody (abcam ab26228) for 20–30 min. After each conjugation step, the chambers were washed with T50 buffer (50 mM NaCl, 10 mM Tris, pH 7.5).
After labeling, cells were dissociated from coverslips by incubating with Ca^2+-free PBS for 20 min followed by gentle pipetting. […] Following 1 hr of lysis at 4°C, cells were centrifuged at 16,000 g for 20 min before the supernatant was collected and maintained on ice. The cell lysate was diluted in a 0.1% detergent dilution buffer to obtain sparse immobilization of labeled protein on the passivated slide. After obtaining an optimal density of immobilized protein, the flow chamber was washed with dilution buffer to remove unbound protein. For SiMPull experiments with PAMs and NAMs, drugs were added to cells during the dissociation step (after dye labeling), and maintained throughout the cell lysis and entire experiment.
Single molecules were imaged with a 100x objective on an inverted microscope (Olympus IX73) in total internal reflection fluorescence (TIRF) mode. Images were taken with an scMOS camera (Hamamatsu ORCA-Flash4v3.0) at 20 Hz with 50 ms exposures. […] Multiple independent experiments were performed for each condition. […] A SNAP-tag labeling efficiency of ~80% was used to calculate the proportion of dimers and monomers. Occasional co-localization of two proteins within a diffraction limited spot along with antibody and NeutrAvidin bivalency both make a small contribution to >1 step photobleaching, leading to a background % two-step bleaching level of ~5–10%. All data were produced from at least two separate transfections/protein preparations for each condition.

[3] = biological target: T2, SNAP-mGluR2-TMD; experiment: Inter-TMD FRET assay in living HEK 293T cells; assay type: cell-based; settings: for EC50: normalized to saturating LY48; for inter-TMD FRET response to drug alone: drug applied alone, XA up to 50 µM
From the text: We therefore sought to develop a FRET sensor that reports on activation-associated motions driven by allosteric drugs and hypothesized that an N-terminal fluorophore on the isolated TMD should report on any inter-TMD rearrangement while allowing the receptor to maintain G-protein coupling (Figure 3A). […] To test if LBD-independent inter-TMD rearrangement is a feature of other mGluRs, we asked if donor and acceptor conjugation to SNAP-mGluR5-TMD would allow for the detection a FRET response to a PAM.
Cells were cultured in DMEM with 5% FBS on poly-L-lysine-coated glass coverslips. DNA plasmids were transfected into cells using Lipofectamine 3000 (Thermo Fisher). […] For single-molecule pulldown (SiMPull) experiments, cells were transfected with 0.7 μg DNA of HA and SNAP-tagged receptor constructs, unless otherwise noted. For FRET experiments, cells were transfected with either SNAP-tagged constructs at 0.5–0.7 μg of DNA/well or SNAP and CLIP-tagged constructs at a ratio of 1:2 with 0.3 μg of SNAP DNA/well.
as §1

[4] = SNAP-mGluR2-TMD labeled with donor and acceptor, mean ± s.e.m., read-out: inter-TMD FRET increase EC50

T1 sequence (P31421 19-872): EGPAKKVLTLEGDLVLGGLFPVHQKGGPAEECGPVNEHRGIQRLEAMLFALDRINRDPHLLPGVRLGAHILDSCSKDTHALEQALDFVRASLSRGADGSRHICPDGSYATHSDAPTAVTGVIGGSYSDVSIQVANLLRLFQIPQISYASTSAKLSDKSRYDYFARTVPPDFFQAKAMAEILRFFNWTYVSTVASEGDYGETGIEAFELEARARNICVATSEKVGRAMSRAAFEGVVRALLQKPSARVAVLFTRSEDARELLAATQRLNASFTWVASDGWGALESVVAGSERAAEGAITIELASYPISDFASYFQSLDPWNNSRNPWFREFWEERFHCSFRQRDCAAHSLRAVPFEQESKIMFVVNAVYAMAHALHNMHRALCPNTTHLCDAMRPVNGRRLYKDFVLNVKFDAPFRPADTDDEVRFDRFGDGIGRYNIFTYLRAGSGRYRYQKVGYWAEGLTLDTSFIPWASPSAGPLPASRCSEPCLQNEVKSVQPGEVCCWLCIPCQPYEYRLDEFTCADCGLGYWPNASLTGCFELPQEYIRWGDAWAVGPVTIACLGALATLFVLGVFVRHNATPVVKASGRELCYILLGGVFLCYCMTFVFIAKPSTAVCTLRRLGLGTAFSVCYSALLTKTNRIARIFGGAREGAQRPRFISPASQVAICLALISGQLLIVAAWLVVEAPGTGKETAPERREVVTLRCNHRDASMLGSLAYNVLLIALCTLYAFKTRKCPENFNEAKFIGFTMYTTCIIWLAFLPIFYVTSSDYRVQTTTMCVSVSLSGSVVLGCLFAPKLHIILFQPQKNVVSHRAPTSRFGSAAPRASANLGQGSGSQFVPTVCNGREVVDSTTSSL
T2 sequence (P31421 558-872 limits assumed): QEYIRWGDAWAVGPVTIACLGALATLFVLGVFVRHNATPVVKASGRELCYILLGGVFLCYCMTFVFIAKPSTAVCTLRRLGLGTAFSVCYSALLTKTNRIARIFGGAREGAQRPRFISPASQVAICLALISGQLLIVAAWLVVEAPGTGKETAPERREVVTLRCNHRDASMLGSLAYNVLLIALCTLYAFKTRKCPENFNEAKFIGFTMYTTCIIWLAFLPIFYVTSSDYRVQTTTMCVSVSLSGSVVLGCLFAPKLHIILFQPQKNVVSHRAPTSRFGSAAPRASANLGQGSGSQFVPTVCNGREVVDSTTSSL

Row | SMILES | direct effect on inter-LBD FRET (no orthosteric agonist for modulators) [1] | higher order complexes with >3 bleaching steps in presence of drug [2] [%] | two-step photobleaching events of SNAP-mGluR2-TMD in presence of drug [2] | EC50 ([3]; SNAP- and CLIP-mGluR2-TMD co-expressed, read-out: inter-TMD FRET increase EC50, co-expression of SNAP- and CLIP-mGluR2-TMD) [µM] | EC50 [3, 4] [µM] | EC50 ([3]; co-expression of dominant negative Gα protein, read-out: inter-TMD FRET increase EC50 with dominant negative G protein) [µM] | inter-TMD FRET response to drug alone [3] | inter-TMD FRET response onset ([3]; saturating concentrations) [s] | inter-TMD FRET response reversal ([3]; saturating concentrations) [min] | effect on inter-LBD FRET response to DCG-IV [1] | effect on LY48-induced inter-TMD FRET response ([3]; NAM versus LY48) | effect on BINA-induced inter-TMD FRET increase ([3]; applied after BINA) | effect on Ro 64-induced inter-TMD FRET increase ([3]; applied after Ro 64) | inter-TMD FRET OFF kinetics [3]
1 | COc1ccccc1Oc1ccc(N(Cc2cccnc2)S(=O)(=O)CC(F)(F)F)cc1 [LY48] | no effect on FRET level; also recorded: unable to directly induce LBD closure | < 10 | 40–45% | 0.9 ± 0.1 | 1.2 ± 0.1 | 0.6 ± 0.04 | readily detectable FRET increase | 10 to 40 | < 2 |  |  |  |  | 
2 | N#Cc1cc(C2=Nc3ccc(Br)cc3NC(=O)C2)ccn1 [MNI 137] | did not alter the basal inter-LBD FRET | < 10 | 40–45% |  |  |  | minimal FRET changes |  |  | partial antagonism | blocked | reversed the BINA-induced FRET increase back to baseline | partially reverse | 
3 | Clc1cccc(Cl)c1/C(=C/n1cncn1)OC1CCCCCC1 [Ro 64] | did not alter the basal inter-LBD FRET | < 10 | 40–45% |  | 2.1 ± 0.2 |  | robust, dose-dependent inter-TMD FRET increases |  |  | partial antagonism |  |  |  | very slow OFF kinetics
